System: termites
Experiment: Anti-termite effectiveness of chlorfenapyr incorporated in a concrete block (barrier test after NF X41-541)
Format: in vivo
Experimental: A block of concrete, 10 cm high, with passages for the termites, is poured, incorporating the treatment product in the mixing water.
After drying and an infiltration test, the test set-up and performance follow the standard NF X41-541. The barrier effect of the specimen is verified by evaluation of the mortality and penetration of the termites in the clean compartment containing blocks of wood. An evaluation of the blocks of wood following the scoring of EN NF 117 is performed at the end of the test.

CCOCn1c(-c2ccc(Cl)cc2)c(C#N)c(Br)c1C(F)(F)F [chlorfenapyr]
Barrier effect of treated concrete against termites (concrete treated with chlorfenapyr, overall conclusion): effectively prevents termites from attacking a building
Rate of survival % (series A: concentration studied 0.05 % (m/m), retention in the concrete: product 261 ppm, chlorfenapyr 56 ppm, 132 g/m^3): 0%
Rate of survival % (series B: concentration studied 0.1 % (m/m), retention in the concrete: product 521 ppm, chlorfenapyr 112 ppm, 265 g/m^3): 0%
Rate of survival % (series C: concentration studied 0.3 % (m/m), retention in the concrete: product 1567 ppm, chlorfenapyr 337 ppm, 795 g/m^3): 0%
Rate of survival % (series D: concentration studied 0.6 % (m/m), retention in the concrete: product 3132 ppm, chlorfenapyr 673 ppm, 1588 g/m^3): 0%

— patent US7931742B2, “Biocidal Structural Barrier (BSB)” (BASF SE, priority 2005, dated 2011)
